Laboratory results from patent US20080096853A1, “Edible Compositions Comprising A Primary Lipid, A Co-Lipid, A Lipohilic Physiologically Active Ingredient And Water, And Their Preparation” (priority 2004, published 2008).

What was measured:
Assay type in all cases: physicochemical
[1] = In situ incorporation of carotenoids from carrot juice into LFEGPG (absorbance at 448 nm); details: Silverson
Description: • 1) 1 g solid LFEGPG was added to 100 ml cold carrot juice (97% pure fresh carrot juice, Zonnatura B.V Zoetermeer, Netherlands). The mixture was warmed up to 50° C. and kept at this temperature for 30 min with magnetic stirring. Homogenization was performed with a Silverson homogenizer at ˜5500 rpm followed by another hydration step for 5 min at 50° C. • The LFEGPG phase was filtrated, collected and dissolved in hexane. The β-carotene content was determined spectrophotometrically (absorbance at 448 nm) to be 0.68 mg β-carotene/g dry lipid phase (corrected for a water content of the hydrated LFEGPG phase of 30%). • (2) 2 g LFEGPG were melted at 50° C. and added dropwise to 100 ml carrot juice kept at 50° C. Magnet stirring was performed for 1 hour at 50° C., then the solution was homogenized with a Silverson homogenizer (4500 rpm for 1 minute) and magnet stirred at 50° C. for another 1 hour. The LFEGPG phase was collected by filtration and dissolved in hexane. The β-carotene content was spectrophotometrically determined (absorbance at 448 nm) to be 1.5 mg β-carotene/g dry LFEGPG. […] Magnet stirring was performed for 20 min at 50° C., Silverson (4500 rpm, 1 min.), and magnet stirred at 50° C. for another 10 min at 50° C. The LFEGPG phase was collected by filtration and dissolved in hexane. The β-carotene content was spectrophotometrically determined (absorbance at 448 nm) to be 2.0 mg β-carotene/g dry LFEGPG.

[2] = Incorporation of β-carotene into LFEGPG in model systems (UV-Vis after centrifugation and hexane extraction)
Description: • (1) A. 1 g LFEGPG and 2.4 mg pure β-carotene were added to 100 ml water, followed by magnet stirring for 1 h at 50° C. 1.7 mg β-carotene/g dry LFEGPG were detected by UV-Vis spectrophotometry after centrifugation and extraction of β-carotene from the collected lipid phase by hexane. • B. 1 g LFEGPG and 2.4 mg pure β-carotene were melted together and added dropwise to 100 ml water, followed by magnet stirring for 20 min at 50° C. Ultra Turrax was applied to homogenize the sample, then the sample was magnet stirred for another 10 min at 50° C. […] Polymorphic or mesomorphic lipid phases containing molecularly dispersed β-carotene were derived (judged from appearance under microscope, however also a few free β-carotene crystals were detected, thus not completely molecularly dispersed). • (4) As the solubility of β-carotene in ethanol is limited, complete molecular dispersion of β-carotene was achieved by the use of non food-grade solvents such as chloroform. […] The lipid phase was investigated under the optical light microscope, and no β-carotene crystals could be detected. • (5) 0.2 g of LFEGPG and 2 mg β-carotene as well as 0.2 g a LFEGPG/Datem (diacetyl tartaric acid esters of mono- and diglycerides) mixture (93/7, by wt) and 2 mg β-carotene were dissolved in chloroform. […]

[3] = USP24 dissolution test type II: solubility of β-carotene in bile extract solution; details: 900 ml bile extract solution in aqueous buffer, 37° C., stirring in USP24 for 60 min
Description: 6 mg of β-carotene and 2 g of lactic fatty acid ester+glycerol/propylene glycol reaction product (LFEGPG) were dissolved at 55° C. in 10 ml of ethanol. This solution was added dropwise to 200 ml of intensely agitated Tris buffer ([…]). After 15 minutes of stirring, the solution was cooled down and the pH adjusted to 4.0 with 1M HCl. The precipitate was then filtrated and LFEGPG lipid phase containing molecularly-dispersed β-carotene was used further in this experiment.
The precipitate was added to the USP24 vessel (dissolution test type II) loaded with 900 ml of bile extract solution in aqueous buffer at 37° C. As a control, 6 mg of free crystalline β-carotene was added to the same buffered bile solution in USP24.

CC1=C(/C=C/C(C)=C/C=C/C(C)=C/C=C/C=C(C)/C=C/C=C(C)/C=C/C2=C(C)CCCC2(C)C)C(C)(C)CCC1 [β-carotene]
β-carotene content of LFEGPG phase ([1]; Example 7 (1): 1 g solid LFEGPG in 100 ml cold carrot juice, 50° C. 30 min, corrected for 30% water content): 0.68 mg β-carotene/g dry lipid phase
β-carotene content of LFEGPG phase ([1]; Example 7 (2): 2 g molten LFEGPG in 100 ml carrot juice, 1 hour stirring, another 1 hour, 50° C.): 1.5 mg β-carotene/g dry LFEGPG
β-carotene content of LFEGPG phase ([1]; Example 7 (3): 1 g molten LFEGPG in 100 ml carrot juice, 20 min stirring, another 10 min, 50° C.): 2.0 mg β-carotene/g dry LFEGPG
β-carotene detected in collected lipid phase ([2]; Example 6 (1) A: 1 g LFEGPG and 2.4 mg β-carotene added to 100 ml water, stirred 1 h at 50° C.): 1.7 mg β-carotene/g dry LFEGPG
β-carotene recovered ([2]; Example 6 (1) B: 1 g LFEGPG and 2.4 mg β-carotene melted together, added dropwise to 100 ml water, Ultra Turrax): 2.2 mg
solubility of β-carotene in the bile solution, from the initial amount (6 mg) [3]: ~0%
